Experimental data published in the NIST ThermoML archive (doi:10.1021/je500772z).
Numbers after ± are expanded uncertainties.

Experiment: osmotic coefficient (dimensionless); mn = molality of the nth substance listed, in mol/kg
Settings: 298.15 K, Liquid, isopiestic method

CCCCn1cc[n+](C)c1.C[C@H](N)C(=O)[O-] [3-butyl-1-methyl-1H-imidazolium L-alaninate] + O
Settings	osmotic coefficient
m1 = 0	1 ± 0.0004
m1 = 0.0134	0.9617 ± 0.0015
m1 = 0.0183	0.9405 ± 0.0023
m1 = 0.0416	0.9262 ± 0.0029
m1 = 0.0612	0.9103 ± 0.0035
m1 = 0.0821	0.9008 ± 0.0038
m1 = 0.109	0.8865 ± 0.0044
m1 = 0.1518	0.8725 ± 0.0049
m1 = 0.1962	0.8661 ± 0.0052
m1 = 0.242	0.8654 ± 0.0052
m1 = 0.2834	0.863 ± 0.0053
m1 = 0.3192	0.8594 ± 0.0054
m1 = 0.3741	0.8633 ± 0.0053
m1 = 0.4453	0.8672 ± 0.0051
m1 = 0.5047	0.8715 ± 0.005
m1 = 0.5755	0.8812 ± 0.0046

CC(C)[C@H](N)C(=O)[O-].CCCCn1cc[n+](C)c1 [1-butyl-3-methylimidazolium L-valinate] + O
Settings	osmotic coefficient
m1 = 0	1 ± 0.0004
m1 = 0.013	0.9595 ± 0.0016
m1 = 0.0202	0.9384 ± 0.0024
m1 = 0.0421	0.923 ± 0.003
m1 = 0.0582	0.9121 ± 0.0034
m1 = 0.0723	0.9019 ± 0.0038
m1 = 0.1086	0.8899 ± 0.0043
m1 = 0.1458	0.8851 ± 0.0045
m1 = 0.1932	0.8794 ± 0.0047
m1 = 0.2434	0.8759 ± 0.0048
m1 = 0.2848	0.879 ± 0.0047
m1 = 0.3283	0.8828 ± 0.0045
m1 = 0.4013	0.8908 ± 0.0042
m1 = 0.4421	0.8986 ± 0.0039
m1 = 0.5035	0.9098 ± 0.0035
m1 = 0.576	0.9279 ± 0.0028

CC(C)C[C@H](N)C(=O)[O-].CCCCn1cc[n+](C)c1 [1-butyl-3-methylimidazolium L-leucinate] + O
Settings	osmotic coefficient
m1 = 0	1 ± 0.0005
m1 = 0.0117	0.9528 ± 0.0019
m1 = 0.0184	0.9362 ± 0.0025
m1 = 0.0387	0.9254 ± 0.0029
m1 = 0.0649	0.9104 ± 0.0035
m1 = 0.0795	0.9093 ± 0.0035
m1 = 0.1123	0.9025 ± 0.0038
m1 = 0.1532	0.8977 ± 0.004
m1 = 0.1914	0.8982 ± 0.0039
m1 = 0.2319	0.9005 ± 0.0039
m1 = 0.2687	0.9029 ± 0.0038
m1 = 0.3111	0.9101 ± 0.0035
m1 = 0.3711	0.9187 ± 0.0031
m1 = 0.4373	0.9255 ± 0.0029
m1 = 0.4915	0.9328 ± 0.0026
m1 = 0.5503	0.9423 ± 0.0022

CCCCn1cc[n+](C)c1.NCC(=O)[O-] [1-butyl-3-methylimidazolium glycinate] + O
Settings	osmotic coefficient
m1 = 0	1 ± 0.004
m1 = 0.0179	0.941 ± 0.004
m1 = 0.0266	0.9408 ± 0.004
m1 = 0.0509	0.9167 ± 0.004
m1 = 0.0737	0.9076 ± 0.004
m1 = 0.0978	0.8916 ± 0.004
m1 = 0.1314	0.8739 ± 0.004
m1 = 0.1811	0.8658 ± 0.004
m1 = 0.2166	0.853 ± 0.004
m1 = 0.263	0.8465 ± 0.004
m1 = 0.3181	0.8432 ± 0.004
m1 = 0.3693	0.8407 ± 0.004
m1 = 0.4305	0.8405 ± 0.004
m1 = 0.5055	0.8474 ± 0.004
m1 = 0.5791	0.8523 ± 0.004
m1 = 0.6439	0.8526 ± 0.004
